Experiments:
[1] = excess molar enthalpy (molar enthalpy of mixing); xn = mol fraction of the nth substance listed; conditions: 308.15 K, Liquid, 2-drop calorimeter
[2] = xn = mol fraction of the nth substance listed; conditions: 308.15 K, Liquid; for speed of sound: Frequency=2 MHz, Linear variable-path acoustic interferometer
[3] = Liquid; for speed of sound / mass density: 101.33 kPa; for speed of sound: Linear variable-path acoustic interferometer; for mass density: Pycnometric method; for vapor or sublimation pressure: Closed cell (Static) method

CNc1ccccc1 [N-methylaniline] + C1COCO1
Conditions | excess molar enthalpy [kcal/mol] | excess molar volume [m3/mol] | speed of sound [m/s]
[1], x2 = 0.0853 | -0.0914 | – | –
[1], x2 = 0.1423 | -0.13 | – | –
[1], x2 = 0.2533 | -0.162 | – | –
[1], x2 = 0.3765 | -0.156 | – | –
[1], x2 = 0.4531 | -0.141 | – | –
[1], x2 = 0.5123 | -0.127 | – | –
[1], x2 = 0.5976 | -0.105 | – | –
[1], x2 = 0.6432 | -0.0927 | – | –
[1], x2 = 0.7123 | -0.0749 | – | –
[1], x2 = 0.7943 | -0.0561 | – | –
[1], x2 = 0.8543 | -0.0409 | – | –
[1], x2 = 0.8912 | -0.0321 | – | –
[1], x2 = 0.9321 | -0.0223 | – | –
[1], x2 = 0.9721 | -0.00894 | – | –
[2], x2 = 0.0415 | – | – | 1521
[2], x2 = 0.0709 | – | -1.8e-08 | –
[2], x2 = 0.1211 | – | – | 1511
[2], x2 = 0.1771 | – | -4.5e-08 | –
[2], x2 = 0.2001 | – | – | 1501
[2], x2 = 0.2387 | – | -6.3e-08 | –
[2], x2 = 0.2754 | – | – | 1490
[2], x2 = 0.2958 | – | -8e-08 | –
[2], x2 = 0.3349 | – | -8.8e-08 | –
[2], x2 = 0.3512 | – | – | 1477
[2], x2 = 0.3916 | – | -9.5e-08 | –
[2], x2 = 0.4222 | – | – | 1463
[2], x2 = 0.4361 | – | -1.02e-07 | –
[2], x2 = 0.4912 | – | -1.1e-07 | –
[2], x2 = 0.4943 | – | – | 1447
[2], x2 = 0.5421 | – | – | 1436
[2], x2 = 0.5531 | – | -1.12e-07 | –
[2], x2 = 0.6213 | – | – | 1415
[2], x2 = 0.6272 | – | -1.04e-07 | –
[2], x2 = 0.6992 | – | -9.3e-08 | –
[2], x2 = 0.7003 | – | – | 1393
[2], x2 = 0.7417 | – | -8.8e-08 | –
[2], x2 = 0.7832 | – | – | 1367
[2], x2 = 0.8545 | – | -5.1e-08 | –
[2], x2 = 0.8632 | – | – | 1341
[2], x2 = 0.9011 | – | – | 1329
[2], x2 = 0.9213 | – | -3e-08 | –
[2], x2 = 0.9632 | – | – | 1307

C1COCO1 [1,3-dioxolane]
[3]
Conditions | mass density [kg/m3] | speed of sound [m/s] | vapor or sublimation pressure [kPa]
298.15 K | 1047.2 | 1388 | –
308.15 K | – | – | 21.5

CNc1ccccc1 [N-methylaniline]
[3]
Conditions | mass density [kg/m3] | speed of sound [m/s] | vapor or sublimation pressure [kPa]
298.15 K | 982.4 | 1572 | –
308.15 K | – | – | 0.0667

Cc1ccccc1N [2-methylaniline]
[3]
Conditions | mass density [kg/m3] | speed of sound [m/s] | vapor or sublimation pressure [kPa]
298.15 K | 994.2 | 1602 | –
308.15 K | – | – | 0.1067

Cc1ccccc1N [2-methylaniline] + C1COCO1
Conditions | excess molar enthalpy [kcal/mol] | excess molar volume [m3/mol] | speed of sound [m/s]
[1], x2 = 0.0754 | -0.0527 | – | –
[1], x2 = 0.1632 | -0.111 | – | –
[1], x2 = 0.2424 | -0.155 | – | –
[1], x2 = 0.3213 | -0.188 | – | –
[1], x2 = 0.4001 | -0.209 | – | –
[1], x2 = 0.4843 | -0.217 | – | –
[1], x2 = 0.5655 | -0.208 | – | –
[1], x2 = 0.6112 | -0.198 | – | –
[1], x2 = 0.6979 | -0.166 | – | –
[1], x2 = 0.7432 | -0.145 | – | –
[1], x2 = 0.808 | -0.112 | – | –
[1], x2 = 0.8831 | -0.0672 | – | –
[1], x2 = 0.9311 | -0.039 | – | –
[1], x2 = 0.9621 | -0.0207 | – | –
[2], x2 = 0.0549 | – | -8.4e-08 | –
[2], x2 = 0.1122 | – | – | 1539
[2], x2 = 0.1721 | – | -2.51e-07 | –
[2], x2 = 0.1891 | – | – | 1526
[2], x2 = 0.2239 | – | -3.12e-07 | –
[2], x2 = 0.2413 | – | – | 1516
[2], x2 = 0.2769 | – | -3.75e-07 | –
[2], x2 = 0.2911 | – | – | 1506
[2], x2 = 0.3212 | – | – | 1500
[2], x2 = 0.351 | – | -4.43e-07 | –
[2], x2 = 0.4011 | – | – | 1484
[2], x2 = 0.4217 | – | -4.86e-07 | –
[2], x2 = 0.4513 | – | – | 1473
[2], x2 = 0.5518 | – | -5.12e-07 | –
[2], x2 = 0.5651 | – | – | 1444
[2], x2 = 0.5889 | – | -5.12e-07 | –
[2], x2 = 0.6218 | – | -4.97e-07 | –
[2], x2 = 0.6637 | – | – | 1415
[2], x2 = 0.6831 | – | -4.66e-07 | –
[2], x2 = 0.6989 | – | – | 1404
[2], x2 = 0.7512 | – | – | 1386
[2], x2 = 0.7523 | – | -4.07e-07 | –
[2], x2 = 0.8147 | – | -3.28e-07 | –
[2], x2 = 0.8319 | – | – | 1358
[2], x2 = 0.8916 | – | -2.16e-07 | –
[2], x2 = 0.9071 | – | – | 1330
[2], x2 = 0.9407 | – | -1.23e-07 | –
[2], x2 = 0.9713 | – | – | 1306

Nc1ccccc1 [aniline] + C1COCO1
Conditions | excess molar enthalpy [kcal/mol] | excess molar volume [m3/mol] | speed of sound [m/s]
[1], x2 = 0.0613 | -0.0386 | – | –
[1], x2 = 0.1622 | -0.0988 | – | –
[1], x2 = 0.2241 | -0.131 | – | –
[1], x2 = 0.2774 | -0.156 | – | –
[1], x2 = 0.3503 | -0.184 | – | –
[1], x2 = 0.4231 | -0.203 | – | –
[1], x2 = 0.5511 | -0.215 | – | –
[1], x2 = 0.5812 | -0.214 | – | –
[1], x2 = 0.6223 | -0.209 | – | –
[1], x2 = 0.6816 | -0.195 | – | –
[1], x2 = 0.7519 | -0.171 | – | –
[1], x2 = 0.8127 | -0.14 | – | –
[1], x2 = 0.8928 | -0.0887 | – | –
[1], x2 = 0.9514 | -0.0435 | – | –
[2], x2 = 0.0789 | – | -1.34e-07 | –
[2], x2 = 0.0812 | – | – | 1587
[2], x2 = 0.1132 | – | -1.88e-07 | –
[2], x2 = 0.1413 | – | – | 1576
[2], x2 = 0.2204 | – | -3.3e-07 | –
[2], x2 = 0.2212 | – | – | 1557
[2], x2 = 0.2916 | – | – | 1539
[2], x2 = 0.3111 | – | -4.28e-07 | –
[2], x2 = 0.3488 | – | – | 1523
[2], x2 = 0.4281 | – | -4.97e-07 | –
[2], x2 = 0.4621 | – | – | 1489
[2], x2 = 0.4916 | – | -5.16e-07 | –
[2], x2 = 0.5219 | – | – | 1470
[2], x2 = 0.523 | – | -5.17e-07 | –
[2], x2 = 0.5928 | – | – | 1447
[2], x2 = 0.5999 | – | -4.93e-07 | –
[2], x2 = 0.6342 | – | -4.77e-07 | –
[2], x2 = 0.6414 | – | – | 1431
[2], x2 = 0.7114 | – | -4.18e-07 | –
[2], x2 = 0.7131 | – | – | 1406
[2], x2 = 0.8001 | – | – | 1374
[2], x2 = 0.8202 | – | -2.94e-07 | –
[2], x2 = 0.8715 | – | – | 1347
[2], x2 = 0.8913 | – | -1.9e-07 | –
[2], x2 = 0.9213 | – | – | 1327
[2], x2 = 0.9233 | – | -1.38e-07 | –
[2], x2 = 0.9711 | – | – | 1307
[2], x2 = 0.9718 | – | -5.25e-08 | –

Nc1ccccc1 [aniline]
[3], 298.15 K
Conditions | mass density [kg/m3] | speed of sound [m/s] | vapor or sublimation pressure [kPa]
– | 1017.2 | 1635 | 0.0933

Reference: the NIST ThermoML archive (doi:10.1016/j.tca.2010.07.027)
